Molecular target: T1, zfT1R2a/zfT1R3 (Danio rerio, UniProt A0A8M1N8F9+Q2MHK9)
T1 sequence (A0A8M1N8F9 26-825): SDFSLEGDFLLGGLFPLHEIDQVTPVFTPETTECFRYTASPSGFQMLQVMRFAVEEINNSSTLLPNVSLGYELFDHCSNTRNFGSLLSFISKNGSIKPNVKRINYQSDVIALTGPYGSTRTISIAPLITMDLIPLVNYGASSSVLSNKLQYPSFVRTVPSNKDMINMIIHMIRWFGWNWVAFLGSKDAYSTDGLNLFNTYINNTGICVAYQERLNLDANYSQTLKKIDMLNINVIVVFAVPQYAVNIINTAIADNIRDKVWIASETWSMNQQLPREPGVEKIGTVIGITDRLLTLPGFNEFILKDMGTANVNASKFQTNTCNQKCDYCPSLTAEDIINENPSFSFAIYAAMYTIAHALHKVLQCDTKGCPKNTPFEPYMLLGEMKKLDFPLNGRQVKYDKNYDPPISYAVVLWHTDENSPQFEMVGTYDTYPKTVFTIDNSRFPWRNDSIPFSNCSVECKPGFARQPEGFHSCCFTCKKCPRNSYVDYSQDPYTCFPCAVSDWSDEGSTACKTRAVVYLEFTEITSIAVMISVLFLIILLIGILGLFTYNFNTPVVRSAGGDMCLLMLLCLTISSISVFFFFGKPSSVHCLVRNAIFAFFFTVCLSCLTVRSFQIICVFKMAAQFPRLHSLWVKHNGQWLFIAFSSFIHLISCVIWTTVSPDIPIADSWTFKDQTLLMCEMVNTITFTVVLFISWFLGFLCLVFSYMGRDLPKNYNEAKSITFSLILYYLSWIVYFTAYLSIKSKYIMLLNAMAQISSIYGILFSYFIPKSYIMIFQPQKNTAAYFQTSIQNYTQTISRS
T1 sequence (Q2MHK9 25-850): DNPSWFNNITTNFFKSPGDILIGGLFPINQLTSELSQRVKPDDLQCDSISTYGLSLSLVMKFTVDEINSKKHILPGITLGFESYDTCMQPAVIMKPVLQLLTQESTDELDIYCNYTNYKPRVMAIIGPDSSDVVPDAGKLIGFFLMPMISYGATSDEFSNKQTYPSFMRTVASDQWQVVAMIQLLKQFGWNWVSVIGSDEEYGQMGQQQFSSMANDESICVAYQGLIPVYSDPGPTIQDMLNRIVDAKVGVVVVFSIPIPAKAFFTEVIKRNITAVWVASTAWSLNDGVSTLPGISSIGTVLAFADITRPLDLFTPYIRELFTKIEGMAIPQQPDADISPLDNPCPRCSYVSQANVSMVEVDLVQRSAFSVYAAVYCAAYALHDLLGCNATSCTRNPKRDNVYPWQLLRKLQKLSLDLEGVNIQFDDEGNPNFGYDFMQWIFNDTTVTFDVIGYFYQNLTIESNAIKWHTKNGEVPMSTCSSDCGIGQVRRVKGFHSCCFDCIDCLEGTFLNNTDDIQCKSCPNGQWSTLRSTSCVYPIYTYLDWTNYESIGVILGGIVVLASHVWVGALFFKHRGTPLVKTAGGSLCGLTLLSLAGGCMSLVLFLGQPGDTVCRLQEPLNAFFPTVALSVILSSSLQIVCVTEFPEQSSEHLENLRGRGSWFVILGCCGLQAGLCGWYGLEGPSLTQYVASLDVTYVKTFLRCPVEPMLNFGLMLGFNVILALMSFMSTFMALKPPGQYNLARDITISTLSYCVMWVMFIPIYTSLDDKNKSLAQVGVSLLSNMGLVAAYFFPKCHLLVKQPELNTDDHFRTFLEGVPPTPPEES
Experiment: Ca2+ mobilization dose-response assay, stable cells expressing zfT1R2a/zfT1R3 with G16gust44
Method: The buffers with lower Cl^− were prepared by progressively replacing NaCl, KCl, CaCl2 and MgCl2 in the buffer with gluconate equivalents[20]. The pH was adjusted to 7.4 with NaOH. Ligands were diluted with the assay buffers at the desired concentrations.
Measurements of the responses of the cells by cell-based assay based on the intracellular Ca^2+ mobilization were carried out as described previously with some modifications[20],[34],[46],[47]. […] The cells were seeded in 96-well plates (clear-bottomed CellBIND surface plate, Corning, Glendale, AZ, USA) coated with ε-poly-L-lysine (Cosmo Bio, Tokyo, Japan) at approximately 70,000 cells per well. After 20 h, the medium was removed and replaced with high Cl^− buffer. After 3 h 30 min incubation at 27 °C, cells were loaded with 5 µM calcium-indicator dye Fluo-8 AM (AAT Bioquest, Sunnyvale, CA, USA) diluted in high Cl^− buffer. After incubation for 30 min at 27 °C, the cells were washed with buffers containing appropriate concentrations of Cl^−. The cellular assay was initiated after 3–5 min of resting and was completed within 5 min. The measurements were made using FlexStation 3 (Molecular Devices, Sunnyvale, CA, USA) at 27 °C. Fluorescence changes (i.e., excitation at 485 nm and emission at 525 nm with a cutoff at 515 nm) were monitored at 2 s intervals. A 100-µL aliquot of assay buffer supplemented with 2 × ligands was added at 20 s, and scanning was continued for an additional 40 s. The response of each well was determined as ∆RFU (delta relative fluorescent units), which was calculated as (maximum fluorescent value)—(minimum fluorescent value). […] Such normalized data from more than three independent experiments are reported as the mean ± standard error of the mean (SEM). Dose‒response fitting curves were calculated by Prism 9 (GraphPad Software, San Diego, CA) using nonlinear regression (log(agonist) vs. response—variable slope), based on the integrated data from the several independent experiments.

| Compound | EC50 in 10 mM Cl- buffer relative to high Cl- buffer (10 mM vs 141.4 mM Cl- buffer) | EC50 (EC50, [Cl-]o=10 mM, unit inferred) | [Cl-]o at which sensitivity is clearly reduced (agonist L-Pro, buffers with 10-141.4 mM Cl-) |
| --- | --- | --- | --- |
| C[C@H](N)C(=O)O [L-Ala, L-alanine] | not influenced | 132 µM | – |
| [Cl-].[Na+] [NaCl] | – | – | below 80 mM |
